This is an account of results in patent US20080045519A1, “Method to Fight Against Insects Including the Use of Hydrocarbon Compounds” (priority 2004, published 2008).

Molecules are shown by their SMILES. Several values for one entry are separate records, joined by “and”; a condition that tells them apart may be missing. Identical values can stand only once.

This experiment relates to worker termites of Reticulitermes santonensis type. Kind of experiment: Insecticidal activity of fipronil plus hydrocarbon compound mixture, termite mortality after 3 days (Example 4). In kind it is in vivo. Particulars: matrix sprayed with hydrocarbon compound mixture (Mixture B), 100 termites. How it is done: The experiment is conducted in a LAB test box (6 cm×9 cm) containing on the bottom 2 mm of wet Fontainebleau sand and is repeated five times. In the box, a matrix is placed, consisting of a foam cube in which holes are made with a diameter of 5 mm, over which a small piece of poplar wood is placed (1 cm×2 cm×2 cm). The foam is impregnated with cold fipronil. The matrix is sprayed with a hydrocarbon compound mixture including 11.4% of 5-methylpentacosane; 36.3% of 11-methylpentacosane; 19.6% of (Z)-9-pentacosene; 27.7% of n-pentacosane, and 5% of n-hexacosane. Only 4 faces are sprayed. The top and the bottom of the matrix are not treated.
In the box, an untreated piece of poplar wood is also placed in order to recreate a natural situation as exactly as possible.
100 worker termites of Reticulitermes santonensis type are placed in the box and their mortality after 3 days is evaluated. Various concentrations of cold fipronil are tested: 0.5 ppm, 1 ppm, 2 ppm, 5 ppm, and 7 ppm.

With `N#Cc1nn(-c2c(Cl)cc(C(F)(F)F)cc2Cl)c(N)c1[S+]([O-])C(F)(F)F` (stereo not drawn) [Fipronil, fipronil], the “Number of termites dead after 3 days” value was 0 (fipronil at 0.5 ppm, average of 5 trials); 0 (fipronil at 0.5 ppm, single trials); 0 (fipronil at 1 ppm, average of 5 trials); 0 (fipronil at 1 ppm, single trials); 20 (fipronil at 2 ppm, average of 5 trials); 50.4 (fipronil at 5 ppm, average of 5 trials). In addition, the “Number of termites dead after 3 days” value is 42 and 45 and 59 and 56 and 50 (fipronil at 5 ppm, single trials); 50.8 (fipronil at 7 ppm, average of 5 trials); 60 and 42 and 55 and 34 and 63 (fipronil at 7 ppm, single trials).
